# ChEMBL document CHEMBL5356930, “Small-molecule inhibitors of bacterial-producing metallo-β-lactamases: insights into their resistance mechanisms and biochemical analyses of their activities” (RSC Med Chem, 2023)
# What was measured:
# [1] = target: T1, Metallo-beta-lactamase type 2 (Bacteria, UniProt C7C422); assay: Inhibition of bacterial NDM-1 (unknown origin) using nitrocefin as substrate incubated for 10 mins followed by substrate addition by absorbance based assay
# [2] = Inhibition of Acinetobacter baumannii Metallo-beta-lactamase IMP-1
# [3] = tested on: Acinetobacter baumannii; assay: Antibacterial activity against MBL-producing Acinetobacter baumannii assessed as diameter of inhibition zone in presence of imipenem; type: functional
# [4] = target: Beta-lactamase VIM-1 (Bacteria, UniProt Q8GDC1); assay: Binding affinity to bacterial Metallo-beta-lactamase VIM-1 (unknown origin) assessed as dissociation constant
# [5] = target: T1, Metallo-beta-lactamase type 2; assay: Inhibition of bacterial NDM-1 (unknown origin)
# [6] = tested on: Vero C1008; assay: Cytotoxicity against African green monkey Vero E6 cells at 40 ug/ml relative to control; type: toxicity, cell-based; conditions: chlorocebus sabaeus, at 40 µg/mL
# [7] = tested on: L929; assay: Cytotoxicity against mouse L929 cells at 40 ug/ml relative to control; type: toxicity, cell-based; conditions: at 40 µg/mL
# [8] = tested on: Escherichia coli; assay: Synergistic activity against NDM-1-producing engineered Escherichia coli assessed as fractional inhibition concentration index in presence of meropenem; type: functional
# [9] = tested on: Escherichia coli; assay: Synergistic activity against multiple NDM-1-producing engineered Escherichia coli clinical isolate assessed as fractional inhibition concentration index in presence of meropenem; type: functional
# [10] = Inhibition of bacterial Metallo-beta-lactamase VIM-2 (unknown origin); design: species or system Bacteria
# [11] = target: Beta-lactamase VIM-1 (Bacteria) (UniProt Q8GDC1); assay: Inhibition of bacterial Metallo-beta-lactamase VIM-1 (unknown origin) at 100 uM relative to control
# [12] = tested on: Bacteria; assay: Inhibition of bacterial Metallo-beta-lactamase VIM-5 (unknown origin) at 100 uM relative to control
# [13] = tested on: L929; assay: Cytotoxicity against mouse L929 cells at 50 uM incubated for 48 hrs by CCK8 assay relative to control; type: toxicity, cell-based; conditions: l929, 48 h
# [14] = target: T1, Metallo-beta-lactamase type 2; assay: Inhibition of bacterial NDM-1 (unknown origin) using imipenem as substrate by Agilent UV8453 Spectrometric analysis
# [15] = tested on: Escherichia coli; assay: Antibacterial activity against NDM-1-producing Escherichia coli in presence of meropenem; type: functional
# [16] = Binding affinity to bacterial Metallo-beta-lactamase IMP-1 (unknown origin) using FC5 as substrate preincubated for 15 min followed by substrate addition by fluorescence based assay; design: species or system Bacteria
# [17] = tested on: Escherichia coli; assay: Antibacterial activity against NDM-1-producing Escherichia coli RC0089 incubated for 16 to 20 hrs in presence of meropenem CLSI-based assay; type: functional; conditions: time 16-20 hrs
# [18] = tested on: Escherichia coli; assay: Synergistic activity against NDM-1-producing Escherichia coli RC0089 assessed as fractional inhibition concentration index in presence of meropenem by CLSI-based assay; type: functional
# [19] = Binding affinity to bacterial Metallo-beta-lactamase IMP-1 (unknown origin) expressed in Escherichia coli BL21(DE3) cells assessed as inhibition constant; design: species or system Bacteria
# [20] = tested on: Escherichia coli; assay: Synergistic activity against IMP-1 producing engineered Escherichia coli NUBL-24 assessed as fractional inhibition concentration index incubated for 16 to 20 hrs in presence of meropenem by CLSI-based microdilution method; type: functional; conditions: time 16-20 hrs
# [21] = tested on: HeLa; assay: Cytotoxicity against human HeLa cells at >1000 uM incubated for 24 hrs by Celltiter assay relative to control; type: toxicity, cell-based
# [22] = tested on: Escherichia coli; assay: Synergistic activity against IMP-1 producing Escherichia coli NUBL-24 infected in CD1 mouse assessed as death rescue at 100 mg/kg, ip measured for 7 days in presence of meropenem relative to control; type: functional; conditions: time 7 day
# [23] = Binding affinity to bacterial Metallo-beta-lactamase VIM-2 (unknown origin) expressed in Escherichia coli BL21(DE3) cells assessed as inhibition constant; design: species or system Bacteria
# [24] = tested on: Klebsiella pneumoniae; assay: Synergistic activity against NDM-1/VIM-1-producing Klebsiella pneumoniae MS5674 assessed as fractional inhibition concentration index in presence of meropenem by checkerboard assay; type: functional
# [25] = Cytotoxicity against human HepG2 cells incubated for 24 hrs by AlamarBlue-based assay; type: toxicity, cell-based
# T1 sequence (C7C422 whole entry): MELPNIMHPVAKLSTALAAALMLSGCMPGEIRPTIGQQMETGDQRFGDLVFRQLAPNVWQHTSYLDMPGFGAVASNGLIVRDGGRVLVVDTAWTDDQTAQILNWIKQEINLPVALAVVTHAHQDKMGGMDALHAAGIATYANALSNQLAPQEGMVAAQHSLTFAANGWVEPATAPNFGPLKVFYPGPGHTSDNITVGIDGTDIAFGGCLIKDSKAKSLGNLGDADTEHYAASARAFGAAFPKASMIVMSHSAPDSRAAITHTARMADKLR
structure (smiles),measurement,setting,value
O=C(Cc1ccccc1)N[C@@H]1C(=O)N2C(C(=O)O)=C(CSc3cccc[n+]3[O-])CS[C@H]12,IC50,[1],7600 nM
Oc1ccccc1/C=N/c1cccnc1/N=C/c1ccccc1O,IC50,[2],93700 nM
same,diameter of the inhibition zone (DIZ),[3],23 mm
O=C1C(SCCCS)CCN1c1ccccc1 (stereo not drawn),Kd,[4],< 880 nM
O=C(O)c1cccc2oc(-c3ccc4cc(OCc5ccccc5)ccc4c3O)nc12,IC50,[1],380 nM
CO[C@H]1C(=O)N2C(C(=O)O)=C(CSc3nc4ccccc4s3)CS[C@H]12,IC50,[5],96 nM
same,Activity,[6],> 60%
same,Activity,[7],> 60%
same,fractional inhibitory concentration index (FICI),[8],0.02
same,fractional inhibitory concentration index (FICI),[9],0.031
Brc1ccc(-c2nnc3n2CCCS3)cc1,IC50,[10],38400 nM
same,inhibition,[11],23%
same,inhibition,[12],33%
S=C(N/N=C/c1ccccn1)Nc1ccc(Cl)cc1,Activity,[13],> 60%
same,IC50,[14],38 nM
CC(C)c1cc2c(c(O)c1O)[C@@]1(C(=O)O)CCCC(C)(C)[C@@H]1CC2 [CARNOSIC ACID],MIC,[15],4 µg/mL
CC(C)c1cccc2c(-c3ccc(F)cc3)c(C(=O)O)[nH]c12,IC50,[16],140 nM
same,MIC,[17],16 µg/mL
same,fractional inhibitory concentration index (FICI),[18],0.258
CCc1c(C(=O)O)c(S(N)(=O)=O)c(CC)n1C,Ki,[19],260 nM
same,fractional inhibitory concentration index (FICI),[20],0.26
same,Activity,[21],> 50%
same,Activity,[22],100%
same,Ki,[23],20 nM
same,fractional inhibitory concentration index (FICI),[24],0.05
CN(C[C@H](O)[C@@H](O)[C@H](O)[C@H](O)CO)C(=O)c1ccc(CN(Cc2ccccn2)Cc2ccccn2)nc1,IC50 at 24 h,[25],> 100000 nM
Oc1ccc(Br)cc1/C=N/c1cccnc1/N=C/c1cc(Br)ccc1O,IC50,[2],83700 nM
same,diameter of the inhibition zone (DIZ),[3],25 mm
